Source: patent US20230295109A1, “PYRIDINONE COMPOUNDS FOR THE TREATMENT OF AUTOIMMUNE DISEASE” (F. Hoffmann-La Roche AG, priority 2020, published 2023)

Assay: Parallel Artificial Membrane Permeability Assay (PAMPA)
Type: in vitro ADME
Method: PAMPA (Parallel Artificial Membrane Permeability Assay) is a first-line permeability screen for drug candidates. This assay mimics the transcellular absorption conditions using an artificial phospholipid membrane and generates a permeability value that can be used for compound ranking and optimization as well as input parameters for in silico models to predict intestinal absorption.
Permeation experiments are carried out in hydrophobic PVDF 96-well microtiter filter plates (MultiScreen Filter Plate, Millipore, #MAIPN4550). Each well is coated with PVDF membrane, which is prepared with 5 µL Dodecane (Sigma, D221104) that contains 1% lecithin (Sigma, P3556-1G).
The typical PAMPA experimental protocol is as follows: The donor plate is placed on a Teflon acceptor plate that has been pre-filled with 150 µL of 100 mM PBS buffer (2.6 g KH2PO4 and 18.5 g K2HPO4.3H2O are dissolved in about 1000 mL of ultra-pure water and mixed thoroughly. The pH is adjusted to 7.40 ± 0.05, using either 1 M sodium hydroxide or 1 M hydrochloric acid.) containing 5% DMSO. The filter on the bottom of each acceptor well is filled with 300 µL of 100 mM PBS buffer (2.6 g KH2PO4 and 18.5 g K2HPO4.3H2O are dissolved in about 1000 mL of ultra-pure water, mixed thoroughly. The pH was adjusted to 7.40 ± 0.05, using either 1 M sodium hydroxide or 1 M hydrochloric acid.). The resulting sandwich is incubated at room temperature under constant shaking (300 rpm) for 4 hours. The sandwich is then disassembled. Before incubation, spike 20 µL dosing solution and mix with 250 µL PBS and 130 µL quench solution (acetonitrile) as T0 sample. After incubation, collect 270 µL solutions from acceptor chamber, followed by the addition of 130 µL acetonitrile. Collect 20 µL solution from donor chamber and add 250 µL PBS and 130 µL acetonitrile. The concentration of compound in all samples are determined by LC-MS/MS and the equations for determining the permeability (Pe, 10^-6 cm/s ) are as follows.
VD is the volume of the donor well; VR is the volume of the acceptor well; Area is the active surface area of membrane; Time is the incubation time (14,400 s in this assay); CR and CD are the concentrations of compound in acceptor and donor solutions, respectively, at the completion of the assay; C0 is the concentration of compound in donor solution before incubation.
The main readout of the PAMPA assay is the permeability value Pe expressed in 10^-6 cm/s. Secondary readouts determined are the amounts of compound in the donor and acceptor compartments as well as compound retention in the membrane. Depending on the permeation rate and the membrane retention, compounds are classified as “low” (Pe < 0.2 and membrane retention <20%) or “medium & high” (Pe >= 0.2; or Pe < 0.2 and membrane retention >= 20%). Each sample is measured in triplicate; the standard deviation is determined for the permeation constant Pe.

CCc1nc(N2CCN3CCN(c4cnc(N5CC6(CNCCO6)C5)nc4)CC3C2)ccc1-c1cc(C)c(=O)n(C)c1 (stereo not drawn) [Example 19, 5-[2-ethyl-6-[2-[2-(5-oxa-2,8-diazaspiro[3.5]nonan-2-yl)pyrimidin-5-yl]-3,4,6,7,9,9a-hexahydro-1H-pyrazino[1,2-a]pyrazin-8-yl]-3-pyridyl]-1,3-dimethyl-pyridin-2-one]
Membrane Retention (PAMPA, pH 7.40, 4 hours): 37.320% | Papp at 4 h (PAMPA, pH 7.4, pH 7.40, room temperature, 4 hours, read-out: PAMPA Pe): 0.87 ×10⁻⁶ cm/s | PAMPA category (class from Pe and membrane retention): medium & high (“medium & high” (Pe >= 0.2; or Pe < 0.2 and membrane retention >= 20%))
